Test results reported in US9526680B2, “Method for searching for malodor control agent, malodor control agent, and malodor control method” (Kao Corporation, priority 2010, dated 2016).

How the values were obtained:
[1] = target: T1, OR2W1 (Homo sapiens, UniProt Q9Y3N9); assay: Luciferase reporter gene assay, OR2W1 expressed in HEK293 cells; format: cell-based; conditions: for Inhibition ratio of OR2W1 response: response to hexanoic acid, test substance added together with hexanoic acid, HEK293
T1 construct: expressed in transfected cells; host or cells: HEK293
T1 sequence (Q9Y3N9 1-320): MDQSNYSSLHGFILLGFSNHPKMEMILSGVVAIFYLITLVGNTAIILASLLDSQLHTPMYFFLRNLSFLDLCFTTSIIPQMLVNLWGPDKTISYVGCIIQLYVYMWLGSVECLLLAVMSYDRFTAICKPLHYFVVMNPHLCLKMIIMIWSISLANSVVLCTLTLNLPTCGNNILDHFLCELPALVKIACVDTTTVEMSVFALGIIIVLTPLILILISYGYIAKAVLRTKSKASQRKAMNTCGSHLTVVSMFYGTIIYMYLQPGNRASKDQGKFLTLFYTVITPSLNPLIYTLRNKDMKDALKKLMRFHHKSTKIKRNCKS
Protocol: (§1) Cloning of human olfactory receptors was performed based on the sequence information registered in GenBank, through PCR with human genomic DNA female (G1521: Promega) as a template. Each of the genes amplified through PCR was inserted into a pENTR vector (Invitrogen) according to an instruction manual. Then, the gene-inserted vector was digested with NotI and AscI, and the obtained fragments were inserted into NotI and AscI sites located downstream of the Flag-Rho tag sequence in the pME18S vector.
(§2) Each of the 350 types of human olfactory receptors was expressed in HEK293 cells. A reaction solution having a composition shown in Table 2 was prepared on a clean bench, and left to stand for 15 minutes. The solution was dispensed to each well of a 96-well plate (BD). Subsequently, […] cells (100 μL, 3×10^5 cells/cm^2) were seeded in each well and cultured for 24 hours in an incubator at 37° C. and under 5% CO2 conditions.
(§3) The olfactory receptor expressed in HEK293 cell was conjugated with cell-intrinsic Gas to activate adenylate cyclase, and thereby the level of intracellular cAMP was increased. For the measurement of the response to odor in this study, the luciferase reporter gene assay was used, in which an increase in the amount of intracellular cAMP was monitored by using the emission value originating from firefly luciferase gene (fluc2P-CRE-hygro) as an indicator. Furthermore, a gene product obtained by fusing renilla luciferase gene in the downstream of CMV promoter (hRluc-CMV) was simultaneously introduced, and this was used as an internal standard for correcting an error in the transgenesis efficiency or the number of cells. The medium was removed from the culture prepared in the above-described section 3) by using a Pipetman, and 75 μl of a solution containing an odor substance (1 mM hexanoic acid or 300 μM nonanoic acid) prepared in CD293 medium (Invitrogen) was added thereto. The cells were cultured for 4 hours in a CO2 incubator, and the luciferase gene was sufficiently expressed in the cells. For the measurement of luciferase activity, the measurement was carried out by using a Dual-Glo™ luciferase assay system (Promega) according to the operation manual of the product. A value calculated by dividing the emission value, derived from a firefly luciferase induced by the stimulation with an odor substance, by the emission value in cells that were not-stimulated with an odor substance, was designated as a fold increase, and used as an index of response intensity.
(§4) OR2W1, OR10A6, OR51E1, OR51I2, and OR51L1 were respectively expressed in HEK293 cells by the same method as that used in Example 1, and a luciferase assay was carried out. In the luciferase assay, hexanoic acid was used as the odorous substance, and test substances were added together with hexanoic acid. The response of the olfactory receptors to hexanoic acid was measured, and a decrease in the receptor response to the addition of test substances was evaluated.
(§5) The inhibition ratios of the receptor response to test substances were calculated as follows. The emission value (Y) obtained from the cells in which the same receptors were introduced but no odor stimulation was conducted, was subtracted from the emission value derived from firefly luciferase (X) induced by odor stimulation with hexanoic acid alone. Similarly, the emission value (Y) obtained from the cells in which no odor stimulation was conducted, was subtracted from the emission value (Z) caused by stimulation with a mixture of hexanoic acid and a test substance. By the following calculation formula, the inhibitory activity of the test substance to receptor response was calculated based on the increment of the emission value (X−Y) caused by stimulation of hexanoic acid alone. Multiple independent experiments were performed in duplicate, and the average of each experiment was obtained. Inhibition ratio (%)={1−(Z−Y)/(X−Y)}×100 […]

[2] = Sensory evaluation test of hexanoic acid odor inhibition; format: in vivo; conditions: for Intensity of odor: hexanoic acid odor, malodor alone rated as 5, 0 to 10 points, test substance diluted 100 times with propylene glycol, three panelists; for Inhibition of hexanoic acid odor (in words): sensory test, test substance diluted 100 times with propylene glycol (FIG. 5, Table 4)
Protocol: Cotton balls were introduced into a glass bottle (Hakuyo Glass Co., Ltd. No. 11, capacity 110 ml), and hexanoic acid diluted 100 times with propylene glycol, nonanoic acid diluted 10 times with propylene glycol, or isovaleric acid diluted 1000 times with propylene glycol, as a malodor, and a test substance were added dropwise in an amount of […] to the cotton balls. The glass bottle was left to stand overnight at room temperature, and the odor molecules were sufficiently volatilized in the glass bottle. A sensory evaluation test was carried out by a panel of three panelists (5 panelists for isovaleric acid), and while the intensity of odor in the case of adding dropwise the malodor alone was rated as 5, the intensity of the malodor in the case of incorporating a test substance was evaluated on the basis of a system of 20 grades from 0 point to 10 points (0.5 points per grade).
Regarding the test substance, florhydral (Givaudan SA), bourgeonal (Givaudan SA), hydroxycitronellal (Givaudan SA, International Flavors & Fragrances, Inc., and the like), 4-isopropylcyclohexanecarbaldehyde (synthesized according to a method described in JP-A-2-188549), 4-(2-methoxyphenyl)-2-methyl-2-butanol (JP-A-9-111281), florosa (Givaudan SA), isocyclocitral (Givaudan SA, International Flavors & Fragrances, Inc., and the like), tripral (International Flavors & Fragrances, Inc.), and Pollenal II (Kao Corp.), which had been diluted 100 times with propylene glycol, were used for hexanoic acid; florhydral that had been diluted 10 times with propylene glycol was used for nonanoic acid; and florhydral that had been diluted 1000 times with propylene glycol was used for isovaleric acid.

[3] = target: T2, OR51I2 (Homo sapiens, UniProt Q9H344); assay: Luciferase reporter gene assay, OR51I2 expressed in HEK293 cells; format: cell-based; conditions: for Inhibition ratio of OR51I2 response: response to hexanoic acid, test substance added together with hexanoic acid, HEK293
T2 construct: expressed in transfected cells; host or cells: HEK293
T2 sequence (Q9H344 1-312): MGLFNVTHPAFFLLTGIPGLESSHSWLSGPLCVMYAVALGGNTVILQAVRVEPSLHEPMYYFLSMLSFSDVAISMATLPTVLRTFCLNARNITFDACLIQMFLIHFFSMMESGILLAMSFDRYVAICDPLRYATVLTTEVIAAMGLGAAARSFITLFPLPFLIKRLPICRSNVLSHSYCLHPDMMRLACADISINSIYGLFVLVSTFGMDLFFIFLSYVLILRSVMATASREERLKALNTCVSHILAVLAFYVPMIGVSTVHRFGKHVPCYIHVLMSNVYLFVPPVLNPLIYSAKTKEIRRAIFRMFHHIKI
Protocol: as §1, §2, §3, §4, §5

[4] = target: T3, OR51L1 (Homo sapiens, UniProt Q8NGJ5); assay: Luciferase reporter gene assay, OR51L1 expressed in HEK293 cells; format: cell-based; conditions: for Inhibition ratio of OR51L1 response: response to hexanoic acid, test substance added together with hexanoic acid, HEK293
T3 construct: expressed in transfected cells; host or cells: HEK293
T3 sequence (Q8NGJ5 1-315): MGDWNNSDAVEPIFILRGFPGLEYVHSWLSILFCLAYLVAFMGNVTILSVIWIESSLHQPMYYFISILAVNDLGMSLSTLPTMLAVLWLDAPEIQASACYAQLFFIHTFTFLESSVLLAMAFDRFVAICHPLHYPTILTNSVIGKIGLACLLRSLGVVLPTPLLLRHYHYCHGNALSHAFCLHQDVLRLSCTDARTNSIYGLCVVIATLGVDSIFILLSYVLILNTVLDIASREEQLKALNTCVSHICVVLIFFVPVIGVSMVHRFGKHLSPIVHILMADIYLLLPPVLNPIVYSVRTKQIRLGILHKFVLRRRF
Protocol: as §1, §2, §3, §4, §5

[5] = target: T4, OR51E1 (Homo sapiens, UniProt Q8TCB6); assay: Luciferase reporter gene assay, OR51E1 expressed in HEK293 cells; format: cell-based; conditions: for Inhibition ratio of OR51E1 response: response to hexanoic acid, test substance added together with hexanoic acid, HEK293
T4 construct: expressed in transfected cells; host or cells: HEK293
T4 sequence (Q8TCB6 1-318): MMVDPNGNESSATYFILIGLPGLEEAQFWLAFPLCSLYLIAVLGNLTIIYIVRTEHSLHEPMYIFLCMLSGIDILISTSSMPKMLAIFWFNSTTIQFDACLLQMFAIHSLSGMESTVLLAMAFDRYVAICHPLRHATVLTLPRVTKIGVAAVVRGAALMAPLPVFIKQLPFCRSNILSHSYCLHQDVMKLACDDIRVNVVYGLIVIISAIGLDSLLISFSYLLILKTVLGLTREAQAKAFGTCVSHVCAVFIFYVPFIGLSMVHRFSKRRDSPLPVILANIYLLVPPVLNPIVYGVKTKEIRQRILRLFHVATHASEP
Protocol: as §1, §2, §3, §4, §5

[6] = 1 mM hexanoic acid, test substance 3, 10, 30, 100, 300 μM (FIG. 4)
[7] = fold increase of luciferase emission, 1 mM hexanoic acid or 300 μM nonanoic acid, or concentration series up to 1000 μM

SMILES	Inhibition ratio of OR2W1 response [1]	Intensity of odor [2]	Inhibition of hexanoic acid odor (in words) [2]	Inhibition ratio of OR51I2 response [3]	Inhibition ratio of OR51E1 response [5]	other results
COc1ccccc1CCC(C)(C)O [4-(2-Methoxyphenyl)-2-methyl-2-butanol, 4-(2-methoxyphenyl)-2-methyl-2-butanol]	1 (Inhibition ratio: 50% or higher)	3.88	inhibit the hexanoic acid odor	–	–	–
CC(C)C1CCC(C)(CO)CC1 (centres unmarked) [4-Isopropyl-1-methylcyclohexylmethanol, 4-isopropyl-1-methylcyclohexylmethanol]	–	–	–	2 (Inhibition ratio: 20% to 50%)	–	–
CC(C)C1CCC(C=O)CC1 (centres unmarked) [4-Isopropylcyclohexanecarbaldehyde, 4-isopropylcyclohexanecarbaldehyde]	–	2.17	inhibit the hexanoic acid odor	2 (Inhibition ratio: 20% to 50%)	–	–
CC(C)(C)c1ccc(CCC=O)cc1 [Bourgeonal, 3-(4-tert-butylphenyl)propanal]	1 (Inhibition ratio: 50% or higher)	3.13	markedly inhibited	1 (Inhibition ratio: 50% or higher)	1 (Inhibition ratio: 50% or higher)	Inhibition of OR51I2 response to hexanoic acid (in words) [3, 6]: in a concentration-dependent manner; Inhibition of OR2W1 response to hexanoic acid (in words) [1, 6]: in a concentration-dependent manner; Inhibition of OR51L1 response to hexanoic acid (in words) [4, 6]: in a concentration-dependent manner; Inhibition ratio of OR51L1 response [4]: 1 (Inhibition ratio: 50% or higher); Inhibition of OR51E1 response to hexanoic acid (in words) [5, 6]: in a concentration-dependent manner
CC(C)=CCCC(C)CC=O (centres unmarked) [Citronellal, 3,7-dimethyl-6-octenal]	–	–	–	–	2 (Inhibition ratio: 20% to 50%)	–
CC(C)c1ccc(C=O)cc1 [Cuminaldehyde, 4-isopropylbenzaldehyde]	–	–	–	2 (Inhibition ratio: 20% to 50%)	–	–
CC(C=O)Cc1ccc(C(C)C)cc1 (centres unmarked) [Cyclamen aldehyde, 3-(4-isopropylphenyl)-2-methylpropanal]	–	–	–	2 (Inhibition ratio: 20% to 50%)	–	–
CC1(C)CCCC2=C1CC(C=O)CC2 (centres unmarked) [Cyclemon A, 1,2,3,4,5,6,7,8-octahydro-8,8-dimethyl-2-naphthalenecarboxyaldehyde]	1 (Inhibition ratio: 50% or higher)	–	–	–	–	–
CC(CC=O)CCCC(C)(C)O (centres unmarked) [Hydroxycitronellal, 3,7-dimethyl-7-hydroxyoctanal]	–	2.25	inhibit the hexanoic acid odor	2 (Inhibition ratio: 20% to 50%)	2 (Inhibition ratio: 20% to 50%)	Inhibition ratio of OR51L1 response [4]: 2 (Inhibition ratio: 20% to 50%)
CC(C=O)Cc1ccc(C(C)(C)C)cc1 (stereo not drawn) [Lilial, p-tert-butyl-α-methylhydrocinnamaldehyde]	2 (Inhibition ratio: 20% to 50%)	–	–	2 (Inhibition ratio: 20% to 50%)	–	–
Cc1cccc(CC(C)(C)CO)c1 [Majantol, 2,2-dimethyl-3-(3-methylphenyl)propanol]	2 (Inhibition ratio: 20% to 50%)	–	–	–	–	–
COC(C)(C)CCCC(C)CC=O (centres unmarked) [Methoxycitronellal, 7-methoxy-3,7-dimethyloctanal]	–	–	–	1 (Inhibition ratio: 50% or higher)	1 (Inhibition ratio: 50% or higher)	Inhibition ratio of OR51L1 response [4]: 1 (Inhibition ratio: 50% or higher)
CC(C=O)C1CCCCC1 (centres unmarked) [Pollenal II, 2-cyclohexylpropanal]	–	2.08	inhibit the hexanoic acid odor	–	2 (Inhibition ratio: 20% to 50%)	–
CC(C)Cc1ccc(CC(C)C=O)cc1 (centres unmarked) [Suzaral, 3-(4-isobutylphenyl)-2-methyl-propionaldehyde]	–	–	–	2 (Inhibition ratio: 20% to 50%)	–	–
CC1=CC(C)C(C=O)CC1 (centres unmarked) [Tripral, 2,4-dimethyl-3-cyclohexane-1-carboxyaldehyde]	–	2.00	inhibit the hexanoic acid odor	–	–	Inhibition ratio of OR51L1 response [4]: 2 (Inhibition ratio: 20% to 50%)
CC(C)CC(=O)O [isovaleric acid, reference compound]	–	–	–	–	–	Response of OR51I2 to the odor substance [3, 7]: concentration-dependent response; Response of OR51E1 to the odor substance [5, 7]: concentration-dependent response
